“Also recorded” adds a separate entry of the source. Counter-ions that a name gives are not always drawn. Like-named read-outs stand apart in the source and are kept apart here.
Assays:
[1] = system: 59 cancer cell lines (NCI-60); test: NCI-60 one-dose in vitro assay; type: cell-based, human
Description: FIGS. 1, 2, 3, 4, 5, 6, 7, 8 show results from the NCI-60 one-dose in vitro assay at the Developmental Therapeutics Program (DTP), at the National Cancer Institute (NCI, Bethesda, MD, USA). Its protocol is well known to those of the art, and it tests the effect, if any, of a test compound on the growth/survivability of a cancer cell line as compared to the no compound control. […] However, a constant is that there is always representative cell lines from leukemia, melanoma and cancers of the lung, colon, brain, ovary, breast, prostate and kidney. In a one-dose NCI compound test report, NCI report a number for each cell line, which they call “Growth Percent”, which is its growth relative to the no-compound control, and relative to the time zero number of cells. This reported parameter allows detection of both growth inhibition (values between 0 and 100) and lethality (values less than 0). For example, an NCI “Growth Percent” value of 100 means no growth inhibition. Value of 40 means 60% growth inhibition. Value of 0 means no net growth over the course of the experiment. Value of −40 means 60% lethality. Value of −100 means all cells are dead. I don't present NCI one-dose data in this original format. Instead, if the NCI “Growth Percent” value for a cell is positive, it is manipulated: [100 minus this original NCI-60 “Growth Percent” data point], to yield the percentage “Growth Inhibition”. If the original NCI “Growth Percent” value for a cell is negative, it is made positive to be the percentage of original cancer cells (at time zero) killed: “Percentage Killed” {and in these cases, of course, all growth has been inhibited, so percentage “Growth Inhibition” is then specified to be 100% for this cancer cell line}. In my one-dose figures, “Growth Inhibition” (0-100%) is presented on the x-axis and, if applicable, “Percentage Killed” (0-100%) further along on the x-axis. The latter is applicable when there is not just cancer growth inhibition but a reduction in the number of cancer cells from the start time i.e. when the compound is not merely slowing cancer growth, but is actively reducing the number of cancer cells from the starting number. In cases where there is only growth inhibition, only “Growth inhibition” is presented on the x-axis.
NCI-60 tests are performed at a controlled temperature of 37° C..
To perform the anti-cancer testing reported: BMS-199264 hydrochloride was purchased from Sigma-Aldrich. BTB06584 was purchased from AdooQ Bioscience, Irvine, CA, USA. Compounds 19a (separated into 6a and 6b stereoisomers) and 31 were synthesized by reaction schemes disclosed herein. Almitrine dimesylate was purchased from Ak Scientific, Palo Alto, CA, USA.

F1F0 ATP hydrolase = target: T1, F1F0 ATP hydrolase (Bos taurus, UniProt P00829+P19483); settings: cited from earlier work
T1 construct: from tissue; host or cells: sub-mitochondrial particles (SMPs)

[2] = cited from earlier work
[3] = cited from earlier work; remark: listed apart in the source
F1F0-ATP hydrolysis = target: T2, F1F0-ATP hydrolysis (Homo sapiens, UniProt P06576+P25705); settings: cited from earlier work
T2 construct: BTB06584 potency information (is not an EC50) is from a whole cell study [13]; endogenous in cells

[4] = from [8], Formula (II), read-out: EC50 F1F0 ATP hydrolase

| Compound | EC50 (F1F0 ATP hydrolase; [4]) | further results |
| --- | --- | --- |
| CC1(C)Oc2ccc(S(=O)(=O)N3CCCCC3)cc2[C@@H](N(Cc2ncc[nH]2)c2ccc(Cl)cc2)[C@@H]1O.Cl [BMS-199264 hydrochloride] | – | anti-cancer activity (in words) ([1]; 10 μM): Anti-cancer activity; anti-cancer activity (in words) ([1]; 100 μM): Anti-cancer activity |
| Cc1nc(CN2c3ccccc3CN(S(=O)(=O)c3ccc(F)cc3)CC2CCc2ccccc2)c[nH]1 (centres unmarked) [4-F—Ph, SO2,2-Me-5-yl] | 9620 nM | – |
| O=S(=O)(c1ccc(O)cc1)N1Cc2ccccc2N(Cc2cnc[nH]2)C(CCc2ccccc2)C1 (centres unmarked) [4-OH—Ph, SO2,5-yl] | 667 nM | – |
| N#Cc1ccc(S(=O)(=O)N2Cc3ccccc3N(Cc3c[nH]cn3)C(CCc3ccccc3)C2)c(Cl)c1 (centres unmarked) [2-Cl-4-CN—Ph, SO2,5-yl] | 939 nM | – |
| O=S(=O)(c1cc(Cl)ccc1Cl)N1Cc2ccccc2N(Cc2cnc[nH]2)C(CCc2ccccc2)C1 (centres unmarked) [2,5-di-Cl—Ph, SO2,5-yl] | 158 nM | – |
| COc1ccc(S(=O)(=O)N2Cc3ccccc3N(Cc3c[nH]cn3)C(CCc3ccccc3)C2)cc1 (centres unmarked) [4-OMe—Ph, SO2,5-yl] | 77 nM | – |
| N#CN=C(Nc1ccccc1Cl)NC(Cn1ccnc1)c1ccc(Cl)cc1Cl (centres unmarked) [2-Cl, CN] | – | EC50 (F1F0 ATP hydrolase; Further Examples [5], Formula (I), read-out: EC50 F1F0 ATP hydrolase): 2230 nM |
| CC[C@H]1/C=C/C=C/C[C@@H](C)[C@H](O)[C@@](C)(O)C(=O)[C@@H](C)[C@H](O)[C@@H](C)C(=O)[C@@H](C)[C@H](O)[C@@H](C)/C=C/C(=O)O[C@@H]2[C@H](C)[C@H](CC1)O[C@]1(CC[C@H](C)[C@H](C[C@@H](C)O)O1)[C@H]2C [oligomycin] | – | time within which healthy rats are killed ([2]; 1 mg/kg intraperitoneal, n=10 [15]): ≤ 48 h; LD33 ([2]; healthy rats, intraperitoneal injection [15]): 0.5 mg/kg |
| CC(C)(C)c1ccc(CN2Cc3ccccc3N(Cc3cnc[nH]3)C(CCc3ccccc3)C2)cc1 (centres unmarked) [4-t-Bu—Ph, CH2,5-yl] | 2140 nM | – |
| O=S(=O)(c1cccc2cccnc12)N1Cc2ccccc2N(Cc2c[nH]cn2)C(CCc2ccccc2)C1 (centres unmarked) [Quinolin-8-yl, SO2,5-yl] | 2930 nM | – |
| N#Cc1ccc(S(=O)(=O)N2Cc3ccccc3N(Cc3cnc[nH]3)C(CCc3ccccc3)C2)cc1 (centres unmarked) [4-CN—Ph, SO2,5-yl] | 255 nM | – |
| O=S(=O)(c1ccc(F)cc1)N1Cc2ccccc2N(Cc2c[nH]cn2)C(CCc2ccccc2)C1 (centres unmarked) [4-F—Ph, SO2,5-yl] | 221 nM | – |
| N#Cc1cccc(C(=O)/N=C(\Nc2ccc(Cl)cc2)NC(Cn2ccnc2)c2ccc(Cl)cc2Cl)c1 (centres unmarked) [Compound 19a] | – | EC50 (F1F0 ATP hydrolase; SMP studies in [5-8], read-out: EC50 F1F0 ATP hydrolysis / hydrolase): 33 nM |
| CN(C)CCCN1c2ccccc2CCc2ccc(Cl)cc21 [clomipramine HCl] | – | LD50 {mouse, IV} ([3]; mouse, in vivo, iv): 22 mg/kg |
| Cc1nc[nH]c1CN1c2ccccc2CN(Cc2ccc(C(C)(C)C)cc2)CC1CCc1ccccc1 (centres unmarked) [4-t-Bu—Ph, CH2,4-Me-5-yl] | 2350 nM | – |
| O=S(=O)(c1cccc2nonc12)N1Cc2ccccc2N(Cc2cnc[nH]2)C(CCc2ccccc2)C1 (centres unmarked) [Benzofurazan-7-yl, SO2,5-yl] | 1780 nM | – |
| O=[N+]([O-])c1cccc(S(=O)(=O)N2Cc3ccccc3N(Cc3cnc[nH]3)C(CCc3ccccc3)C2)c1 (centres unmarked) [3-NO2—Ph, SO2,5-yl] | 423 nM | – |
| O=S(=O)(c1cccc2ccccc12)N1Cc2ccccc2N(Cc2cnc[nH]2)C(CCc2ccccc2)C1 (centres unmarked) [Naphth-1-y1, SO2,5-yl] | 338 nM | – |
| O=S(=O)(N1Cc2ccccc2N(Cc2c[nH]cn2)C(CCc2ccccc2)C1)C(F)(F)F (centres unmarked) [CF3, SO2,5-yl] | 77 nM | – |
| O=S(=O)(Cc1ccccc1)N1Cc2ccccc2N(Cc2c[nH]cn2)C(CCc2ccccc2)C1 (centres unmarked) [Bn, SO2,5-yl] | 2410 nM | – |
| O=C(Oc1cc(S(=O)(=O)c2ccccc2)ccc1[N+](=O)O)c1ccc(Cl)cc1 [BTB06584] | – | anti-cancer activity (in words) ([1]; 10 μM): none and No anti-cancer activity; anti-cancer activity (in words) ([1]; 100 μM): observed; also recorded: Anti-cancer activity; inhibitory potency for F1F0-ATP hydrolysis (in words) (F1F0-ATP hydrolysis; 10 μM [13]): none; concentration required to inhibit F1F0-ATP hydrolysis (F1F0-ATP hydrolysis; whole cell study [13], not an EC50): > 100 µM |
| N.N.O=C([O-])C1(C(=O)[O-])CCC1.[Pt+2] [carboplatin] | – | LD50 ([3]; mice, intraperitoneal injection (IP)): 118 mg/kg |
| Cc1nc[nH]c1CN1c2ccccc2CN(S(=O)(=O)c2ccc(F)cc2)CC1CCc1ccccc1 (centres unmarked) [4-F—Ph, SO2,4-Me-5-yl] | 151 nM | – |
| O=S(=O)(c1ccccc1)N1Cc2ccccc2N(Cc2cnc[nH]2)C(CCc2ccccc2)C1 (centres unmarked) [Ph, SO2,5-yl] | 282 nM | – |
| CC(C)(C)c1ccc(S(=O)(=O)N2Cc3ccccc3N(Cc3c[nH]cn3)C(CCc3ccccc3)C2)cc1 (centres unmarked) [4-t-Bu—Ph, SO2,5-yl] | 8 nM | – |
| CC(C)(C)c1ccc(S(=O)(=O)N2Cc3ccccc3N(Cc3ncc[nH]3)C(CCc3ccccc3)C2)cc1 (centres unmarked) [4-t-Bu—Ph, SO2,2-yl] | > 10000 nM | – |
| O=S(=O)(c1cccs1)N1Cc2ccccc2N(Cc2cnc[nH]2)C(CCc2ccccc2)C1 (centres unmarked) [Thiophen-2-yl, SO2,5-yl] | 636 nM | – |
